Test system: L1210 leukemia cells
Test: cell proliferation test on L1210 leukemia cells (C14-thymidine incorporation)
Assay type: cell-based
Settings: Mus musculus, 72 hours, 37° C., 5% of CO2, concentration which reduces incorporation of radioactive thymidine by 50% vs control
Procedure: The inhibiting action was determined (cell proliferation test) as described below:
[…] cells in the exponential growth phase (5×10^3 /ml in RPMI 1640) are incubated in a microtiter plate with different concentrations of the test substance for 72 hours (37° C., 5% of CO2, 95% relative atmospheric humidity). Controls comprise cells incubated only with fresh medium. All the determinations are carried out as 4-fold determinations. After 65 hours, 50 μl of C14-thymidine (1.5 μC/ml) are added in order to radiolabel the cell DNA. After incubation for 7 hours, the cells are filtered off with suction and the DNA is precipitated with 5% strength trichloroacetic acid and washed with water and methanol in succession. After drying at 50° C., the radioactivity incorporated into the DNA is determined after addition of 5 ml of scintillation liquid. The results are stated as ratios of the scintillation index after incubation with the test substance in percent of the untreated control. From the measurement values thus obtained, the dose/effect curve is determined, and the IC50, that is to say the concentration which reduces the incorporation of radioactive thymidine by 50% under test conditions in comparison with the control, is determined graphically.

CCC1(O)CC(OC2CC(N(C)C)C(OC3CCC(OC4C=CC(=O)C(C)O4)C(C)O3)C(C)O2)c2c(O)c3c(c(O)c2C1OC1CC(N(C)C)C(O)C(C)O1)C(=O)c1cccc(O)c1C3=O (stereo not shown) [cytorhodin SE gluconate]
IC50: 6 ng/mL

Source: US4795808A, “Anthracycline tetrasaccharides” (Hoechst Aktiengesellschaft, priority 1985, dated 1989)
